“And” between values parts separate entries of the source, which are not always exact repeats. Equal values may be shown once. Inconclusive results and toxic doses are left out.
Test system: BDF1 mice, P388 leukemia ip, median survival T/C
Experiment: NCI In Vivo Anticancer Drug Screen. Data for tumor model P388 Leukemia (intraperitoneal) in B6D2F1 (BDF1) mice
Details: endpoint: median survival time, higher = longer survival
Summary of the method: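 Compound-treated tumour-bearing mice were compared with vehicle-treated controls. Survival was recorded, and the value is the treated-group measurement divided by the control-group measurement (T/C).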

[1] = dose: 200.0 mg/kg/injection, schedule: Q04DX003 (ip), vehicle: saline with Tween-80
[2] = dose: 400.0 mg/kg/injection, schedule: Q04DX003 (ip), vehicle: saline with Tween-80
[3] = dose: 6.25 mg/kg/injection, schedule: Q01DX009 (ip), vehicle: saline
[4] = dose: 100.0 mg/kg/injection, schedule: Q01DX009 (ip), vehicle: Klucel (hydroxypropylcellulose) (HPC)
[5] = dose: 100.0 mg/kg/injection, schedule: Q04DX003 (ip), vehicle: saline with Tween-80
[6] = dose: 50.0 mg/kg/injection, schedule: Q01DX009 (ip), vehicle: other
[7] = dose: 100.0 mg/kg/injection, schedule: Q01DX009 (ip), vehicle: saline with Tween-80
[8] = dose: 200.0 mg/kg/injection, schedule: Q01DX009 (ip), vehicle: saline with Tween-80
[9] = dose: 400.0 mg/kg/injection, schedule: Q01DX009 (ip), vehicle: saline with Tween-80
[10] = dose: 50.0 mg/kg/injection, schedule: Q01DX009 (ip), vehicle: saline with Tween-80

**Q.** Which results are given for `C=Cc1ccccc1-c1ccccc1C(=O)OC`?
**A.** T/C [1]: 87 % of control; T/C [2]: 105 % of control

**Q.** How did the T/C (dose: 25.0 mg/kg/injection, schedule: Q01DX001 (ip), vehicle: saline sonified) turn out when `CCCCCCCCCCCCCCCCCOc1ccc2ccccc2c1` was run?
**A.** 100 % of control

**Q.** And the T/C (dose: 50.0 mg/kg/injection, schedule: Q01DX001 (ip), vehicle: saline sonified)?
**A.** 100 % of control

**Q.** What about the T/C (dose: 100.0 mg/kg/injection, schedule: Q01DX001 (ip), vehicle: saline sonified) of the same compound?
**A.** 90 % of control

**Q.** How did the T/C [3] turn out when `COC1OC(CO)C(O)C(O)C1O` (stereo unspecified) was run?
**A.** 97 % of control

**Q.** What about the T/C (dose: 12.5 mg/kg/injection, schedule: Q01DX009 (ip), vehicle: saline) of the same compound?
**A.** 106 % of control

**Q.** And the T/C (dose: 25.0 mg/kg/injection, schedule: Q01DX009 (ip), vehicle: saline)?
**A.** 97 % of control

**Q.** What about the T/C (dose: 100.0 mg/kg/injection, schedule: Q01DX009 (ip), vehicle: saline) of the same compound?
**A.** 104 % of control

**Q.** And the T/C (dose: 200.0 mg/kg/injection, schedule: Q01DX009 (ip), vehicle: saline)?
**A.** 106 % of control

**Q.** What does the source list for `Clc1ncc(Br)c(Cl)n1`?
**A.** T/C (dose: 2.7 mg/kg/injection, schedule: Q01DX009 (ip), vehicle: Klucel (hydroxypropylcellulose) (HPC)): 95 % of control; T/C (dose: 4.1 mg/kg/injection, schedule: Q01DX009 (ip), vehicle: Klucel (hydroxypropylcellulose) (HPC)): 95 % of control; T/C (dose: 8.2 mg/kg/injection, schedule: Q01DX009 (ip), vehicle: Klucel (hydroxypropylcellulose) (HPC)): 109 % of control; T/C (dose: 8.3 mg/kg/injection, schedule: Q01DX009 (ip), vehicle: Klucel (hydroxypropylcellulose) (HPC)): 100 % of control; T/C (dose: 12.5 mg/kg/injection, schedule: Q01DX009 (ip), vehicle: Klucel (hydroxypropylcellulose) (HPC)): 100 % of control and 109 % of control; T/C (dose: 13.75 mg/kg/injection, schedule: Q04DX003 (ip), vehicle: Klucel (hydroxypropylcellulose) (HPC)): 104 % of control; T/C (dose: 18.0 mg/kg/injection, schedule: Q01DX009 (ip), vehicle: Klucel (hydroxypropylcellulose) (HPC)): 100 % of control; T/C (dose: 18.75 mg/kg/injection, schedule: Q01DX009 (ip), vehicle: Klucel (hydroxypropylcellulose) (HPC)): 115 % of control; T/C (dose: 27.5 mg/kg/injection, schedule: Q04DX003 (ip), vehicle: Klucel (hydroxypropylcellulose) (HPC)): 100 % of control; T/C (dose: 55.0 mg/kg/injection, schedule: Q04DX003 (ip), vehicle: Klucel (hydroxypropylcellulose) (HPC)): 108 % of control; T/C (dose: 80.0 mg/kg/injection, schedule: Q04DX003 (ip), vehicle: Klucel (hydroxypropylcellulose) (HPC)): 108 % of control; T/C (dose: 125.0 mg/kg/injection, schedule: Q04DX003 (ip), vehicle: Klucel (hydroxypropylcellulose) (HPC)): 100 % of control

**Q.** Which T/C [4] does the source give for `CCCC(=O)Nc1ccc(NS(C)(=O)=O)cc1OC` here?
**A.** 95 % of control

**Q.** And the T/C (dose: 100.0 mg/kg/injection, schedule: Q04DX003 (ip), vehicle: Klucel (hydroxypropylcellulose) (HPC))?
**A.** 100 % of control

**Q.** What about the T/C (dose: 200.0 mg/kg/injection, schedule: Q01DX009 (ip), vehicle: Klucel (hydroxypropylcellulose) (HPC)) of the same compound?
**A.** 90 % of control

**Q.** What about the T/C (dose: 200.0 mg/kg/injection, schedule: Q04DX003 (ip), vehicle: Klucel (hydroxypropylcellulose) (HPC)) of the same compound?
**A.** 95 % of control

**Q.** What about the T/C (dose: 400.0 mg/kg/injection, schedule: Q01DX009 (ip), vehicle: Klucel (hydroxypropylcellulose) (HPC)) of the same compound?
**A.** 90 % of control

**Q.** For `CO[C@H](C)[C@](O)(C(=O)OCC1=CC[N+]2([O-])CC[C@H](O)[C@@H]12)C(C)C` (stereo partly specified), which T/C (dose: 40.0 mg/kg/injection, schedule: Q01DX010 (ip), vehicle: saline) is on record?
**A.** 100 % of control

**Q.** What about the T/C (dose: 80.0 mg/kg/injection, schedule: Q01DX010 (ip), vehicle: saline) of the same compound?
**A.** 105 % of control

**Q.** And the T/C (dose: 160.0 mg/kg/injection, schedule: Q01DX010 (ip), vehicle: saline)?
**A.** 116 % of control

**Q.** What about the T/C (dose: 200.0 mg/kg/injection, schedule: Q01DX007 (ip), vehicle: water) of the same compound?
**A.** 117 % of control

**Q.** And the T/C (dose: 400.0 mg/kg/injection, schedule: Q01DX007 (ip), vehicle: water)?
**A.** 119 % of control

**Q.** What about the T/C (dose: 800.0 mg/kg/injection, schedule: Q01DX007 (ip), vehicle: water) of the same compound?
**A.** 119 % of control

**Q.** What about the T/C (dose: 1600.0 mg/kg/injection, schedule: Q01DX007 (ip), vehicle: water) of the same compound?
**A.** 94 % of control

**Q.** What does the source list for `CC(=O)OCC(=O)[C@@]1(O)CC[C@H]2[C@@H]3CCC4=CC(=O)CC[C@]4(C)[C@@]3(F)[C@@H](O)C[C@@]21C`?
**A.** T/C (dose: 50.0 mg/kg/injection, schedule: Q01DX009 (sc), vehicle: steriod suspending solution): 104 % of control; T/C (dose: 100.0 mg/kg/injection, schedule: Q01DX009 (sc), vehicle: steriod suspending solution): 104 % of control; T/C (dose: 100.0 mg/kg/injection, schedule: Q04DX003 (sc), vehicle: steriod suspending solution): 115 % of control; T/C (dose: 200.0 mg/kg/injection, schedule: Q04DX003 (sc), vehicle: steriod suspending solution): 115 % of control

**Q.** Which results are given for `[Cr+6].[NH2-].[NH2-].[NH2-].[NH2-].[NH2-].[NH2-]`?
**A.** T/C (dose: 4.1 mg/kg/injection, schedule: Q04DX003 (ip), vehicle: saline): 116 % of control; T/C (dose: 5.4 mg/kg/injection, schedule: Q04DX003 (ip), vehicle: saline): 109 % of control; T/C [3]: 120 % of control; T/C (dose: 8.2 mg/kg/injection, schedule: Q01DX009 (ip), vehicle: saline): 122 % of control; T/C (dose: 8.2 mg/kg/injection, schedule: Q04DX003 (ip), vehicle: saline): 109 % of control; T/C (dose: 25.0 mg/kg/injection, schedule: Q01DX001 (ip), vehicle: saline): 112 % of control; T/C (dose: 50.0 mg/kg/injection, schedule: Q01DX001 (ip), vehicle: saline): 112 % of control

**Q.** Which results are given for `Oc1ccccc1C1N=NC2=C(CCCC2)N1O` (stereo unspecified)?
**A.** T/C (dose: 50.0 mg/kg/injection, schedule: Q01DX009 (ip), vehicle: Klucel (hydroxypropylcellulose) (HPC)): 99 % of control; T/C [4]: 93 % of control

**Q.** Which T/C [5] does the source give for `CCCCc1c2c(nn1C(=O)C=C(C)C)C(=O)C=C(Nc1ccccc1)C2=O` here?
**A.** 99 % of control

**Q.** What about the T/C [1] of the same compound?
**A.** 95 % of control

**Q.** And the T/C [2]?
**A.** 103 % of control

**Q.** `CCCCNc1ccc([N+](=O)[O-])cc1[N+](=O)[O-]` was tested. Which T/C [6] did it give?
**A.** 95 % of control

**Q.** What about the T/C (dose: 100.0 mg/kg/injection, schedule: Q01DX009 (ip), vehicle: other) of the same compound?
**A.** 101 % of control

**Q.** And the T/C (dose: 200.0 mg/kg/injection, schedule: Q01DX009 (ip), vehicle: other)?
**A.** 105 % of control

**Q.** Which results are given for `CNC(=O)C(C)C1C(=O)/C(=C(O)/C=C\C(C)=C\C(C)C2OC3(C)OC(C=CC34CO4)C2C)C(=O)N1C1CCC(O)C(C)O1` (stereo unspecified)?
**A.** T/C [7]: 109 % of control; T/C [8]: 100 % of control; T/C [9]: 109 % of control

**Q.** How did the T/C [7] turn out when `O=c1[nH]cnc2n[nH]nc12` was run?
**A.** 108 % of control

**Q.** What about the T/C [5] of the same compound?
**A.** 104 % of control

**Q.** What about the T/C [8] of the same compound?
**A.** 124 % of control

**Q.** What about the T/C [1] of the same compound?
**A.** 113 % of control

**Q.** And the T/C [9]?
**A.** 100 % of control

**Q.** And the T/C [2]?
**A.** 104 % of control

**Q.** How did the T/C [6] turn out when `CCO/C=C/C=C1C(=O)N(C)C(=O)N(C)C1=O` was run?
**A.** 122 % of control

**Q.** How did the T/C [10] turn out when `COc1ccc(C(=S)N2CCN(c3ccccc3)CC2)cc1` was run?
**A.** 95 % of control

**Q.** What about the T/C [7] of the same compound?
**A.** 100 % of control

**Q.** What about the T/C [8] of the same compound?
**A.** 95 % of control

**Q.** For `CCCn1c(=S)[nH]c2ccccc2c1=O`, which T/C (dose: 100.0 mg/kg/injection, schedule: Q01DX001 (ip), vehicle: Klucel (hydroxypropylcellulose) (HPC)) is on record?
**A.** 100 % of control

**Q.** What about the T/C (dose: 200.0 mg/kg/injection, schedule: Q01DX001 (ip), vehicle: Klucel (hydroxypropylcellulose) (HPC)) of the same compound?
**A.** 100 % of control

**Q.** What about the T/C (dose: 400.0 mg/kg/injection, schedule: Q01DX001 (ip), vehicle: Klucel (hydroxypropylcellulose) (HPC)) of the same compound?
**A.** 100 % of control

**Q.** `COc1ccc2c(c1OC(C)=O)-c1cc(OC(C)=O)cc3c1C(C2)N(C(=O)CBr)CC3` (stereo unspecified) was tested. Which T/C (dose: 6.25 mg/kg/injection, schedule: Q01DX009 (ip), vehicle: saline with Tween-80) did it give?
**A.** 105 % of control

**Q.** And the T/C (dose: 12.5 mg/kg/injection, schedule: Q01DX009 (ip), vehicle: saline with Tween-80)?
**A.** 106 % of control

**Q.** What about the T/C (dose: 25.0 mg/kg/injection, schedule: Q01DX009 (ip), vehicle: saline with Tween-80) of the same compound?
**A.** 116 % of control

**Q.** And the T/C [10]?
**A.** 88 % of control and 114 % of control

**Q.** `COc1ccc(OP2OCC(C)O2)cc1` (stereo unspecified) was tested. Which T/C [10] did it give?
**A.** 103 % of control

**Q.** What about the T/C [7] of the same compound?
**A.** 102 % of control

**Q.** And the T/C [8]?
**A.** 102 % of control

**Q.** How did the T/C [7] turn out when `COc1ccc2c(Cl)cc(NC(=O)Nc3c(C)cccc3C)nc2c1` was run?
**A.** 88 % of control

**Q.** For `CNC(=N)c1ccc(NC(=N)c2ccc(NC(=O)Nc3ccc(C(=N)Nc4ccc(C(=N)NC)cc4)cc3)cc2)cc1`, which T/C (dose: 6.0 mg/kg/injection, schedule: Q01DX009 (ip), vehicle: saline with Tween-80) is on record?
**A.** 216 % of control

**Q.** And the T/C (dose: 8.0 mg/kg/injection, schedule: Q01DX009 (ip), vehicle: saline with Tween-80)?
**A.** 172 % of control and 214 % of control

**Q.** And the T/C (dose: 12.0 mg/kg/injection, schedule: Q01DX009 (ip), vehicle: saline with Tween-80)?
**A.** 241 % of control and 204 % of control and 214 % of control

**Q.** And the T/C (dose: 12.5 mg/kg/injection, schedule: Q04DX003 (ip), vehicle: saline with Tween-80)?
**A.** 122 % of control

Reference: PubChem BioAssay AID328 (DTP/NCI, 2004)
